The text below walks through data of article PMC7540527, “Synthesis of Antiviral Perfluoroalkyl Derivatives of Teicoplanin and Vancomycin” (Chemmedchem, 2020).

≈ marks a conversion by molar mass, not a printed value. Where a name gives a salt, the structure may show the parent alone. Read-outs that look alike come from different tables or passages of the source.

Data set [1] concerns Vesicular stomatitis virus. Put plainly: microbe, parasite or virus in culture. It is filed as cell-based. Particulars: HeLa, read-out: Antiviral EC50 Vesicular stomatitis virus, Visual CPE score.
For data set [2], the system named is Coxsackie virus B4. Put plainly: microbe, parasite or virus in culture. The class given is cell-based. Conditions: Enterovirus B, B4, HeLa, read-out: Antiviral EC50 Coxsackie virus B4, Visual CPE score.
Data set [3] has as its system Respiratory syncytial virus. Put plainly: microbe, parasite or virus in culture. The class given is cell-based. Conditions: human respiratory syncytial virus, HeLa, read-out: Antiviral EC50 Respiratory syncytial virus, Visual CPE score.
Data set [4] is described as follows: in vitro. Conditions: human.
The subject of data set [5] is herpes simplex virus type 1 (HSV-1). In words: microbe, parasite or virus in culture. The class given is cell-based. Particulars: Human alphaherpesvirus 1, HEL, read-out: Antiviral EC50 HSV‐1.
Data set [6] has as its system thymidine-kinase deficient (TK-) mutant of HSV-1. Put plainly: microbe, parasite or virus in culture. It is filed as cell-based, herpes simplex virus type 1. Particulars: Human alphaherpesvirus 1, HEL, read-out: Antiviral EC50 HSV‐1/TK−.
Data set [7] concerns herpes simplex virus type 2 (HSV-2). In words: microbe, parasite or virus in culture. It is filed as cell-based. Particulars: Human alphaherpesvirus 2, HEL, read-out: Antiviral EC50 HSV‐2.
Another data set relates to vaccinia virus. In words: microbe, parasite or virus in culture. It is filed as cell-based. Conditions: Orthopoxvirus vaccinia, HEL, read-out: Antiviral EC50 Vaccinia.
Data set [8] concerns human adenovirus type 2 (AdV-2). Put plainly: microbe, parasite or virus in culture. It is filed as cell-based. Conditions: Human mastadenovirus C, HEL, read-out: Antiviral EC50 AdV‐2.
The nature of data set [9]: in vitro. Conditions: human. This is another data set of the same source.
The next data set relates to Reovirus-1. Put plainly: organism not typed. It is filed as cell-based. Conditions: Vero.
A further data set has as its system Sindbis virus. Put plainly: microbe, parasite or virus in culture. Conditions: Vero. It is filed as cell-based.
The subject of data set [10] is Coxsackie virus B4. In words: microbe, parasite or virus in culture. The class given is cell-based. Conditions: Enterovirus B, B4, Vero.
The next data set has as its system Punta Toro virus. Put plainly: microbe, parasite or virus in culture. Particulars: Vero. The class given is cell-based.
The next data set has as its system Yellow Fever virus (17D). Put plainly: microbe, parasite or virus in culture. The class given is cell-based. Particulars: Vero.
The test system of data set [11] is Zika virus (strain MR766). Put plainly: microbe, parasite or virus in culture. Particulars: Vero. The class given is cell-based.
The subject of a further data set is Vero cells. Particulars: African green monkey.
Data set [12] can be described thus: in vitro. Conditions: African green monkey.
The test system of data set [13] is influenza A/H1N1 A/Ned/378/05. In words: microbe, parasite or virus in culture. The class given is cell-based, influenza A virus. Particulars: Influenza A virus, H1N1, MDCK.
The subject of data set [14] is influenza A/H3N2 A/Victoria/361/11. In words: microbe, parasite or virus in culture. Conditions: Influenza A virus, H3N2, MDCK. It is filed as cell-based, influenza A virus.
Data set [15] deals with influenza B virus B/Ned/537/05. In words: CPE reduction assay for influenza virus in MDCK cells, influenza B. The class given is cell-based. Conditions: Influenza B virus. The protocol: The CPE reduction assay for influenza virus was described in full detail in previous publications.41 The virus strains were: A/PR/8/34 (A/H1 N1); A/Virginia/ATCC3/2009 (A/H1 N1pdm); A/HK/7/87 (A/H3 N2); B/Ned/537/05; and B/HK/5/72. On day 0, Madin‐Darby canine kidney (MDCK) cells in 96‐well plates were infected with influenza virus at a multiplicity of infection (MOI) of 0.0004 plaque forming units (PFU) per cell. After three days incubation at 35 °C, virus‐induced CPE and compound cytotoxicity were scored by microscopy, after which the data were confirmed by formazan‐based MTS cell viability assay (CellTiter 96® AQueous One Solution Cell Proliferation Assay from Promega). The antiviral effect was expressed as the compound concentration producing 50 % inhibition of the virus‐induced CPE (EC50). Compound cytotoxicity was expressed as the compound concentration causing minimal changes in cell morphology (MCC), and 50 % cytotoxic concentration (CC50) based on MTS assay.42

Data set [16] in a line: in vitro. Particulars: dog.
Data set [17] deals with Bacillus subtilis ATCC 6633. In words: Antibacterial MIC. Conditions: Bacillus subtilis, ATCC6633, read-out: MIC Bacillus subtilis ATCC 6633. It is filed as cell-based.
The subject of data set [18] is Staphylococcus aureus MSSA ATCC 29213. In words: Antibacterial MIC. Particulars: Staphylococcus aureus, read-out: MIC Staphylococcus aureus MSSA ATCC 29213. It is filed as cell-based.
For data set [19], the system named is S. aureus MRSA ATCC 33591. In words: Antibacterial MIC. Particulars: Staphylococcus aureus, read-out: MIC S. aureus MRSA ATCC 33591. The class given is cell-based, Staphylococcus aureus.
The subject of data set [20] is Staphylococcus epidermidis ATCC 35984 biofilm. Put plainly: Antibacterial MIC. The class given is cell-based.
For data set [21], the system named is Enterococcus faecalis ATCC 29212. In words: Antibacterial MIC. It is filed as cell-based. Particulars: Enterococcus faecalis, ATCC29212, read-out: MIC Enterococcus faecalis ATCC 29212.
The next data set deals with E. faecalis 15376 VanA. In words: Antibacterial MIC. The class given is cell-based, Enterococcus faecalis. Conditions: Enterococcus faecalis, 15376VANA, read-out: MIC E. faecalis 15376 VanA.
The subject of data set [22] is E. faecalis ATCC 51299 VanB. Put plainly: Antibacterial MIC. The class given is cell-based, Enterococcus faecalis. Conditions: Enterococcus faecalis, ATCC51299, read-out: MIC E. faecalis ATCC 51299 VanB.
Data set [23] has as its system panel of Gram-positive bacteria. It is filed as cell-based.
In the next data set the test system is HeLa cells. Conditions: human.
Where [24] appears, read: read-out: Antiviral EC50 A/H1N1 CPE.
Setting [25] is: read-out: Antiviral EC50 A/H1N1 MTS.
Where [26] appears, read: read-out: Antiviral EC50 A/H3N2 CPE.
Setting [27] is: read-out: Antiviral EC50 A/H3N2 MTS.

`NC(=O)c1ncn([C@@H]2O[C@H](CO)[C@@H](O)[C@H]2O)n1` [Ribavirin]: the EC50 in [1] amounted to 87 µM; in the data set on Coxsackie virus B4 [2] it was 126 µM; in data set [3] it was 5 µM. In addition, in “in vitro [4]”, the CC50 is greater than 250 µM.

For the compound `Nc1ccn(C[C@@H](CO)OCP(=O)(O)O)c(=O)n1` [cidofovir], the EC50 in data set [5] was 2.4 µM; in [6], 4.7 µM; in data set [7], 1 µM; in the data set on vaccinia virus, 10 µM; in data set [8] it was 6.4 µM. For the same compound, in “in vitro [9]”, the CC50 was greater than 250 µM.

As for `COc1c(C)c2c(c(O)c1C/C=C(\C)CCC(=O)O)C(=O)OC2` [Mycophenolic acid], the EC50 in the data set with Reovirus-1 (read-out: Antiviral EC50 Reovirus-1, MTS) is 4 µM; in the data set on Reovirus-1 (read-out: Antiviral EC50 Reovirus-1, Visual CPE score), 3.3 µM; in the data set with Sindbis virus (read-out: Antiviral EC50 Sindbis virus, MTS), 4 µM; in the data set with Sindbis virus (read-out: Antiviral EC50 Sindbis virus, Visual CPE score) it was 5.7 µM; in the data set with Coxsackie virus B4 [10] (read-out: Antiviral EC50 Coxsackie virus B4, MTS), greater than 100 µM; in the data set with Coxsackie virus B4 [10] (read-out: Antiviral EC50 Coxsackie virus B4, Visual CPE score), greater than 100 µM. Further, the EC50 in the data set with Punta Toro virus (read-out: Antiviral EC50 Punta Toro virus, MTS) is 10.6 µM; with Punta Toro virus (read-out: Antiviral EC50 Punta Toro virus, Visual CPE score) it was greater than 100 µM; in the data set on Yellow Fever virus (17D) (read-out: Antiviral EC50 Yellow Fever virus, MTS), 1.4 µM; with Yellow Fever virus (17D) (read-out: Antiviral EC50 Yellow Fever virus, Visual CPE score), greater than 100 µM; in data set [11] (read-out: Antiviral EC50 Zika virus, MTS), 1.5 µM; in data set [11] (read-out: Antiviral EC50 Zika virus, Visual CPE score), 0.8 µM. The “Cytotoxicity MCC” value in the data set on Vero cells was greater than 100. Also, in the data set “in vitro [12]”, the CC50 is greater than 100 µM.

For the compound `CN[C@H](CC(C)C)C(=O)N[C@H]1C(=O)N[C@@H](CC(N)=O)C(=O)N[C@H]2C(=O)N[C@H]3C(=O)N[C@H](C(=O)N[C@H](C(=O)O)c4cc(O)cc(O)c4-c4cc3ccc4O)[C@H](O)c3ccc(c(Cl)c3)Oc3cc2cc(c3O[C@@H]2O[C@H](CO)[C@@H](O)[C@H](O)[C@H]2O[C@H]2C[C@](C)(N)[C@H](O)[C@H](C)O2)Oc2ccc(cc2Cl)[C@H]1O` [vancomycin⋅HCl], the EC50 in data set [13] (setting [24]) is greater than 100 µM; in data set [13] (setting [25]), greater than 100 µM; in data set [14] (setting [26]), greater than 100 µM; in [14] (setting [27]), greater than 100 µM; in [15] (MDCK, read-out: Antiviral EC50 Influenza B CPE) it was greater than 100 µM; in data set [15] (MDCK, read-out: Antiviral EC50 Influenza B MTS), greater than 100 µM. The “Cytotoxicity MCC (minimum cytotoxic concentration)” value with MDCK cells (dog) was greater than 100 µM. Also, in “in vitro [16]”, the CC50 is greater than 100 µM.

With `Cc1cn([C@H]2C[C@H](F)[C@@H](CO)O2)c(=O)[nH]c1=O` [alovudine], the EC50 in data set [8] was found to be 5.9 µM. The compound further showed a CC50 in the data set “in vitro [9]” greater than 250 µM.

As for `Nc1nc2c(ncn2COCCO)c(=O)[nH]1` [acyclovir], the figures for the EC50 (in data set [5]; in data set [7]; in the data set with vaccinia virus) were 2.4 µM, 0.05 µM and greater than 250 µM, respectively. Besides, in “in vitro [9]”, the CC50 is greater than 250 µM.

Turning to `CC(=O)N[C@H]1[C@H]([C@H](O)[C@H](O)CO)OC(C(=O)O)=C[C@@H]1N=C(N)N` [zanamivir], the EC50 in data set [13] (setting [24]) is 1.5 µM; in data set [13] (setting [25]), 3.1 µM; in [14] (setting [26]) it was 20 µM; in data set [14] (setting [27]), 9 µM; in data set [15] (MDCK cells, B/Ned/537/05, MTS assay, read-out: Antiviral EC50 Influenza B MTS) it was 1.7 µM; in data set [15] (MDCK cells, B/Ned/537/05, visual CPE scoring, read-out: Antiviral EC50 Influenza B CPE) it was 2 µM. In the data set with MDCK cells (dog), the “Cytotoxicity MCC (minimum cytotoxic concentration)” value was greater than 100 µM. Also, in “in vitro [16]”, the CC50 is greater than 100 µM.

Broadly, the MIC is the lowest concentration found to suppress growth. In the case of `CC(C)C[C@H](C(=O)N[C@H]1C(=O)N[C@@H](CC(N)=O)C(=O)N[C@H]2C(=O)N[C@H]3C(=O)N[C@H](C(=O)N[C@H](C(=O)O)c4cc(O)cc(O)c4-c4cc3ccc4O)[C@H](O)c3ccc(c(Cl)c3)Oc3cc2cc(c3O)Oc2ccc(cc2Cl)[C@H]1O)n1cc(COCCOCCOCCOCCOCCCC(F)(F)C(F)(F)C(F)(F)C(F)(F)F)nn1` [Compound 12], the MIC stood at 32 µg/mL (≈ 19.4 µM) in data set [17]; 4 µg/mL (≈ 2.43 µM) in data set [18]; 8 µg/mL (≈ 4.85 µM) in [19]; 8 µg/mL (≈ 4.85 µM) in [21]; 16 µg/mL (≈ 9.71 µM) with E. faecalis 15376 VanA; 16 µg/mL (≈ 9.71 µM) in data set [22]. Further, the “MIC Staphylococcus epidermidis ATCC 35984 biofilm” value in data set [20] amounted to 8 µg/mL (≈ 4.85 µM). Further, the “Antibacterial activity (in words)” value in [23] is “moderate activity”. For the same compound, in the data set on MDCK cells, the “Cytotoxicity in MDCK cells (in words)” value is “highly cytotoxic”. The CC50 with MDCK cells (dog) was 4 µM; with HeLa cells, greater than 100 µM. Besides, the “Cytotoxicity MCC (minimum cytotoxic concentration)” value with MDCK cells (dog) was determined as 42 µM. Also, in the data set on HeLa cells, the “Cytotoxicity MCC” value is recorded as greater than 100.
